Source: ChEMBL document CHEMBL3885861, “Open TG-GATES”

Organism: Rattus norvegicus
Test: Open TG-GATES - Regimen: Single
Assay type: toxicity, organism-based, Sprague-Dawley
Design: regimen Single, gender Male, age 6 weeks
Conditions: in vivo, po, 1000 mg/kg, route gavage, dose level High; for APTT / Bas / Eos / Fbg / Hb / Ht / Lym / MCH / MCHC / MCV / Mono / Neu / PT / Plat / RBC / Ret / WBC: tissue Blood; for KIDNEY_L / KIDNEY_R / KIDNEY_TOTAL: tissue Kidney; for LIVER: tissue Liver; for A/G / ALP / ALT / AST / BUN / CRE / Ca / Cl / DBIL / GLC / IP / K / LDH / Na / PL / RALB / TBIL / TC / TG / TP / gamma-GTP: tissue Plasma

Structure (SMILES): O=C(O)c1cc(/N=N/c2ccc(S(=O)(=O)Nc3ccccn3)cc2)ccc1O [SULFASALAZINE]
- TERMINAL_BW (3 h): 210.6 g
- APTT (3 h): 19.5 s
- Bas (3 h): 0%
- Eos (3 h): 1%
- Fbg (3 h): 221.8 mg/dL
- Hb (3 h): 13.4 g/dL
- Ht (3 h): 39.6%
- Lym (3 h): 72.2%
- MCH (3 h): 21.2 pg
- MCHC (3 h): 33.9%
- MCV (3 h): 62.4 fL
- Mono (3 h): 2.8%
- Neu (3 h): 23.2%
- PT (3 h): 12.7 s
- Plat (3 h): 116.4 x10_4/uL
- RBC (3 h): 633.8 x10_4/ul
- Ret (3 h): 7%
- WBC (3 h): 94.9 x10_2/uL
- KIDNEY_L (3 h): 1 g
- KIDNEY_R (3 h): 1 g
- KIDNEY_TOTAL (3 h): 1.9 g
- LIVER (3 h): 9.7 g
- A/G (3 h): 1.5
- ALP (3 h): 1059.6 IU/L
- ALT (3 h): 39.4 IU/L
- AST (3 h): 67.8 IU/L
- BUN (3 h): 11.4 mg/dL
- CRE (3 h): 0.4 mg/dL
- Ca (3 h): 10.7 mg/dL
- Cl (3 h): 102.4 meq/L
- DBIL (3 h): 0.064 mg/dL
- GLC (3 h): 196.6 mg/dL
- IP (3 h): 9.4 mg/dL
- K (3 h): 4 meq/L
- LDH (3 h): 203.6 IU/L
- Na (3 h): 139.6 meq/L
- PL (3 h): 139.4 mg/dL
- RALB (3 h): 3.4 g/dL
- TBIL (3 h): 0.1 mg/dL
- TC (3 h): 76 mg/dL
- TG (3 h): 46.2 mg/dL
- TP (3 h): 5.6 g/dL
- gamma-GTP (3 h): 1 IU/L
- TERMINAL_BW (6 h): 208.9 g
- APTT (6 h): 18.8 s
- Bas (6 h): 0%
- Eos (6 h): 0.8%
- Fbg (6 h): 226 mg/dL
- Hb (6 h): 13.1 g/dL
- Ht (6 h): 38.3%
- Lym (6 h): 76.4%
- MCH (6 h): 21.3 pg
- MCHC (6 h): 34.2%
- MCV (6 h): 62.2 fL
- Mono (6 h): 2.2%
- Neu (6 h): 19.2%
- PT (6 h): 12.7 s
- Plat (6 h): 120.4 x10_4/uL
- RBC (6 h): 616.4 x10_4/ul
- Ret (6 h): 7.3%
- WBC (6 h): 73.5 x10_2/uL
- KIDNEY_L (6 h): 0.9 g
- KIDNEY_R (6 h): 1 g
- KIDNEY_TOTAL (6 h): 1.9 g
- LIVER (6 h): 9 g
- A/G (6 h): 1.5
- ALP (6 h): 928.2 IU/L
- ALT (6 h): 31.4 IU/L
- AST (6 h): 66.4 IU/L
- BUN (6 h): 8.4 mg/dL
- CRE (6 h): 0.4 mg/dL
- Ca (6 h): 10.5 mg/dL
- Cl (6 h): 103.2 meq/L
- DBIL (6 h): 0.066 mg/dL
- GLC (6 h): 190.8 mg/dL
- IP (6 h): 9.4 mg/dL
- K (6 h): 4 meq/L
- LDH (6 h): 207.8 IU/L
- Na (6 h): 141.4 meq/L
- PL (6 h): 144 mg/dL
- RALB (6 h): 3.4 g/dL
- TBIL (6 h): 0.1 mg/dL
- TC (6 h): 75.4 mg/dL
- TG (6 h): 59 mg/dL
- TP (6 h): 5.6 g/dL
- gamma-GTP (6 h): 1 IU/L
- TERMINAL_BW (9 h): 206.9 g
- APTT (9 h): 18.8 s
- Bas (9 h): 0%
- Eos (9 h): 0.8%
- Fbg (9 h): 222.2 mg/dL
- Hb (9 h): 13.2 g/dL
- Ht (9 h): 38.4%
- Lym (9 h): 72.2%
- MCH (9 h): 21.9 pg
- MCHC (9 h): 34.4%
- MCV (9 h): 63.7 fL
- Mono (9 h): 1.2%
- Neu (9 h): 25.2%
- PT (9 h): 12.8 s
- Plat (9 h): 110.1 x10_4/uL
- RBC (9 h): 603.4 x10_4/ul
- Ret (9 h): 7.2%
- WBC (9 h): 68.2 x10_2/uL
- KIDNEY_L (9 h): 0.9 g
- KIDNEY_R (9 h): 1 g
- KIDNEY_TOTAL (9 h): 1.9 g
- LIVER (9 h): 8 g
- A/G (9 h): 1.5
- ALP (9 h): 772.2 IU/L
- ALT (9 h): 31.4 IU/L
- AST (9 h): 67.4 IU/L
- BUN (9 h): 8.6 mg/dL
- CRE (9 h): 0.4 mg/dL
- Ca (9 h): 10.4 mg/dL
- Cl (9 h): 103.2 meq/L
- DBIL (9 h): 0.06 mg/dL
- GLC (9 h): 210.6 mg/dL
- IP (9 h): 8.6 mg/dL
- K (9 h): 3.5 meq/L
- LDH (9 h): 195.4 IU/L
- Na (9 h): 141.4 meq/L
- PL (9 h): 137.2 mg/dL
- RALB (9 h): 3.5 g/dL
- TBIL (9 h): 0.1 mg/dL
- TC (9 h): 72.6 mg/dL
- TG (9 h): 23 mg/dL
- TP (9 h): 5.8 g/dL
- gamma-GTP (9 h): 1.4 IU/L
- TERMINAL_BW (24 h): 214 g
- APTT (24 h): 17.5 s
- Bas (24 h): 0%
- Eos (24 h): 0.8%
- Fbg (24 h): 216.2 mg/dL
- Hb (24 h): 13.5 g/dL
- Ht (24 h): 39.4%
- Lym (24 h): 82.6%
- MCH (24 h): 21.7 pg
- MCHC (24 h): 34.4%
- MCV (24 h): 63 fL
- Mono (24 h): 2.4%
- Neu (24 h): 13%
- PT (24 h): 13.2 s
- Plat (24 h): 135.4 x10_4/uL
- RBC (24 h): 624 x10_4/ul
- Ret (24 h): 6.2%
- WBC (24 h): 85.9 x10_2/uL
- KIDNEY_L (24 h): 1 g
- KIDNEY_R (24 h): 1 g
- KIDNEY_TOTAL (24 h): 1.9 g
- LIVER (24 h): 8.6 g
- A/G (24 h): 1.5
- ALP (24 h): 925.2 IU/L
- ALT (24 h): 40.6 IU/L
- AST (24 h): 69.8 IU/L
- BUN (24 h): 13.8 mg/dL
- CRE (24 h): 0.4 mg/dL
- Ca (24 h): 10.7 mg/dL
- Cl (24 h): 100.6 meq/L
- DBIL (24 h): 0.076 mg/dL
- GLC (24 h): 191 mg/dL
- IP (24 h): 8.8 mg/dL
- K (24 h): 3.8 meq/L
- LDH (24 h): 232 IU/L
- Na (24 h): 139.6 meq/L
- PL (24 h): 142.4 mg/dL
- RALB (24 h): 3.4 g/dL
- TBIL (24 h): 0.1 mg/dL
- TC (24 h): 79.8 mg/dL
- TG (24 h): 52.8 mg/dL
- TP (24 h): 5.7 g/dL
- gamma-GTP (24 h): 1 IU/L
